Data from patent EP0005541A2, “Substituted piperidine, morpholine or piperidone derivatives, fungicides containing these compounds, process for their preparation and their use, and the use of these compounds as fungicides” (F. HOFFMANN-LA ROCHE & CO. Aktiengesellschaft, priority 1978, dated 1979).

How the values were obtained:
Type in all cases: in vivo
Erysiphe graminis = Erysiphe graminis protective spray test on barley seedlings (greenhouse); conditions: barley seedlings HERTA, infected 2 days after spraying, read 7 days after infection vs infected untreated control
Protocol: 30-40 Gerstenkeimlinge der Sorte HERTA (verteilt auf 2 Töpfe mit 7 cm Durchmesser) wurden jeweils im Einblattstadium mit einer wässerigen Dispersion der Testsubstanz (wie allgemein üblich aufbereitet als Spritzpulver) allseitig gründlich besprüht und anschliessend bei 22-26°C, 80% rel. Luftfeuchtigkeit und einer Photoperiode von 16 Stunden im Gewächshaus weiterkultiviert. Die Infektion erfolgte 2 Tage nach der Behandlung durch Bestäuben der Versuchspflanzen mit Kon dien von Erysiphe graminis. 7 Tage nach der Infektion wurde ::ie durch Erysiphe graminis befallene Blattfläche in % gegenüber derjenigen der infizierten, nicht behandelten Kontrolle ermittelt. Die Resultate sind in Tabelle I zusammengefasst.

Puccinia coronata = Puccinia coronata protective spray test on oat seedlings; conditions: oat seedlings FLAEMINGSKRONE, infected 2 days after spraying, read on day 9 after infection vs infected untreated control
Protocol: 30-40 Haferkeimlinge der Sorte FLAEMINGSKRONE (verteilt auf 2 Töpfe mit 7 cm Durchmesser) wurden jeweils im Einblattstadium mit einer wässerigen Dispersion der Testsubstanz (wie allgemein üblich aufbereitet als Spritzpulver) allseitig gründlich besprüht und anschliessend in einer Klimakabine bei 17°C. 70-80% rel. Luftfeuchtigkeit und einer Photoperiode von 16 Stunden weiterkultiviert. Nach 2 Tagen erfolgte die Infektion der Versuchspflanzen durch Besprühen mit in dest. Wasser suspendierten Uredosporen (300'000 Sporen/ml) vor. Puccinia coronata. Danach wurden die Pflanzen während 24 Stunden bei 20°C und einer Luftfeuchtigkeit von über 90W im Dunkeln inkubiert und anschliessend in ein Gewächshaus mit einer Temperatur von 22-26 °C, einer rel. Luftfeuchtigkeit von 70% und einer Photoperiode von 18 Stunden übe führt. Am 9. Tage nach der Infektion wurde die durch Pucrinia coronata befallene Blattfläche in % gegenüber der infizierten, nicht behandelten Kontrolle ermittelt. Die ResLltate sind in Tabelle I zusammengefasst.

Venturia inaequalis = Venturia inaequalis protective spray test on apple seedlings; conditions: infected 2 days after spraying, read on day 13 after infection vs infected untreated control
Protocol: 3 Apfelpflänzchen (verteilt auf 3 Töpfe mit 5 cm Durchmesser) aus Samen der Sorte GOLDIN DELICIOUS wurden im 4- bis 5-Blattstadium mit einer wässerigen Dispersion der Testsubstanz (wie allgemein üblich aufbereitet als Spritzpulver) allseitig gründlich besprüht. Die behandelten Pflanzen wurden anschliessend während 2 Tagen bei 17°C, 70-80%rel. Luftfeuchtigkeit und einer Photoperiode von 14 Stunden weiterkultiviert. Danach erfolgte die Infektion der Apfelsämlinge durch Besprühen mit in dest. Wasser suspendierten Konidien (200'000 Konidien/ml) von Venturia inaequalis. Nach der Infektion wurden die Pflanzen im Dunkeln während 48 Stunden bei 16-18°C und einer rel. Luftfeuchtigkeit von über 90% inkubiert und anschliessend in ein schattiertes Gewächshaus mit einer Temperatur von 22-26 °C und einer rel. Luftfeuchtigkeit von über 80% überführt. Am 13. Tage nach der Infektion erfolgte die Ermittlung der durch Venturia inaequalis befallenen Blattfläche gegenüber der infizierten, nicht behandelten Kontrolle. Die Resultate sind in Tabelle II zusammengefasst.

Structure (SMILES) | Wirkung (in %) Erysiphe graminis (Erysiphe graminis; 5 mg/l Spritzbrühe) | Wirkung (in %) Erysiphe graminis (Erysiphe graminis; 16 mg/l Spritzbrühe) | Wirkung (in %) Erysiphe graminis (Erysiphe graminis; 50 mg/l Spritzbrühe) | Wirkung (in %) Erysiphe graminis (Erysiphe graminis; 160 mg/l Spritzbrühe) | Wirkung (in %) Puccinia coronata (Puccinia coronata; 5 mg/l Spritzbrühe) | Wirkung (in %) Puccinia coronata (Puccinia coronata; 16 mg/l Spritzbrühe) | Wirkung (in %) Puccinia coronata (Puccinia coronata; 50 mg/l Spritzbrühe) | Wirkung (in %) Puccinia coronata (Puccinia coronata; 160 mg/l Spritzbrühe) | Wirkung (in %) Puccinia coronata (Puccinia coronata; 500 mg/l Spritzbrühe) | Wirkung (in %) Venturia inaequalis (Venturia inaequalis; 500 mg/l Spritzbrühe) | Wirkung (in %) Erysiphe graminis (Erysiphe graminis; 500 mg/l Spritzbrühe) | Wirkung (in %) Venturia inaequalis (Venturia inaequalis; 5 mg/l Spritzbrühe) | Wirkung (in %) Venturia inaequalis (Venturia inaequalis; 16 mg/l Spritzbrühe) | Wirkung (in %) Venturia inaequalis (Venturia inaequalis; 50 mg/l Spritzbrühe) | Wirkung (in %) Venturia inaequalis (Venturia inaequalis; 160 mg/l Spritzbrühe)
CC(Cc1ccc(C(C)(C)C)cc1)CN1CCC2(CC1)OCCO2 (centres unmarked) [1-[3-(p-tert.-Butyl-phenyl)-2-methyl-propyl]-4,4-äthylendioxy-piperidin] | 30% | 50% | 70% | 85% | 90% | 95% | 100% | 100% | 100% | 20% |  |  |  |  | 
CC(Cc1ccc(C(C)(C)CCl)cc1)CN1CCCCC1 (centres unmarked) [1-/3-[p-(2-Chlor-1,1-dimethyl-äthyl)-phenyl]-2-methyl-propyl/-piperidin] | 45% | 70% | 80% | 97% | 30% | 65% | 85% | 100% | 100% | 95% | 100% | 0% | 20% | 30% | 90%
CCC(C)(C)c1ccc(C(C)=C(C)CN2CCC3(CC2)OCCO3)cc1 [1-[3-(p-tert.-Amyl-phenyl)-2,3-dimethyl-2-propenyl]-4,4-äthylendioxy-piperidin] | 75% | 90% | 90% | 98% | 20% | 98% | 100% | 100% | 100% | 95% |  | 0% | 0% | 10% | 10%
CC(Cc1ccc(C(C)(C)CCl)cc1)CN1CC(C)OC(C)C1 (centres unmarked) [4-/3-[p-(2-Chlor-1,1-dimethyl-äthyl)-phenyl]-2-methyl-propyl/-2,6-dimethyl-morpholin] | 60% | 75% | 90% | 100% | 0% | 0% | 20% | 100% |  | 95% | 100% | 13% | 67% | 93% | 95%
CCC(C)(C)c1ccc(CC(C)CN2CCC3(CC2)OCCO3)cc1 (centres unmarked) [1-[3-(p-tert.-Amyl-phenyl)-2-methyl-propyl]-4,4-äthylendioxy-piperidin] | 75% | 85% | 90% | 100% | 10% | 30% | 90% | 100% | 100% | 98% | 100% | 0% | 40% | 63% | 97%
